US8575158B2, “1-phenyl-substituted heterocyclyl derivatives and their use as prostaglandin D2 receptor modulators” (Actelion Pharmaceuticals Ltd., priority 2010, dated 2013)

Biological target: T1, hCRTH2 receptor (Homo sapiens, UniProt Q9Y5Y4)
T1 construct: expressed in transfected cells; host or cells: HEK293
T1 sequence (Q9Y5Y4 1-395): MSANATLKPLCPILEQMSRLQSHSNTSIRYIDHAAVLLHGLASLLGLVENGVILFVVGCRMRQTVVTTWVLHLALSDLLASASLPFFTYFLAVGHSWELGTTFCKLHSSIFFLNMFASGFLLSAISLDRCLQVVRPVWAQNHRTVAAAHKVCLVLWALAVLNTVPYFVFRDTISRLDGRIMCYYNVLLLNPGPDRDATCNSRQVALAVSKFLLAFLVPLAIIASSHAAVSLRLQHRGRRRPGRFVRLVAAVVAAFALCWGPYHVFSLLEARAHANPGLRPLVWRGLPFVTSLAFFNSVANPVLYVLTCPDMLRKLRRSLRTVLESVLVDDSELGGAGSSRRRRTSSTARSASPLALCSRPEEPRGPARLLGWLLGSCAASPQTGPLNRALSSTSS
Experiment: Radioligand displacement assay (3H-PGD2) on hCRTH2 receptor membranes
Type: binding
Details: antagonistic activity

[1] = 3H-PGD2 displacement on HEK293-hCRTH2 membrane fragments
[2] = 3H-PGD2 radioligand displacement, HEK293-hCRTH2 membranes

SMILES | IC50 [1] [nM] | IC50 [2] [nM]
O=C(O)COc1ccc(Cl)cc1C1c2ccccc2CCN1C(=O)[C@@H]1C[C@H]1c1ccccc1Cl (relative stereo) [Example 82, (4-Chloro-2-{2-[trans-2-(2-chloro-phenyl)-cyclopropanecarbonyl]-1,2,3,4-tetrahydro-isoquinolin-1-yl}-phenoxy)-acetic acid] | 4.8 | –
O=C(O)COc1ccc(Cl)cc1C1c2cccc(F)c2CCN1C(=O)[C@@H]1C[C@H]1c1ccccc1 (relative stereo) [Example 117, {4-Chloro-2-[5-fluoro-2-(trans-2-phenyl-cyclopropanecarbonyl)-1,2,3,4-tetrahydro-isoquinolin-1-yl]-phenoxy}-acetic acid] | 32.5 | –
O=C(O)COc1ccc(F)cc1[C@@H]1c2ccccc2CCN1C(=O)[C@@H]1C[C@H]1c1ccccc1 (single isomer, unassigned) [Example 29] | 7.72 | –
O=C(O)COc1ccc(F)cc1[C@@H]1c2ccccc2CCN1C(=O)[C@@H]1C[C@H]1c1ccccc1 (single isomer, unassigned) [Example 30] | 912 | –
Cc1ccccc1C1CC1C(=O)N1CCc2ccccc2C1c1cc(Cl)ccc1OCC(=O)O (single isomer, unassigned) [Example 153, (±)-{4-Chloro-2-[2-((trans)-2-o-tolyl-cyclopropanecarbonyl)-1,2,3,4-tetrahydro-isoquinolin-1-yl]-phenoxy}-acetic acid (diastereosiomer 1)] | 123 | –
Cc1ccccc1C1CC1C(=O)N1CCc2ccccc2C1c1cc(Cl)ccc1OCC(=O)O (single isomer, unassigned) [Example 154, (±)-{4-Chloro-2-[2-((trans)-2-o-tolyl-cyclopropanecarbonyl)-1,2,3,4-tetrahydro-isoquinolin-1-yl]-phenoxy}-acetic acid (diastereosiomer 2)] | 4.83 | –
O=C(O)COc1ccc(Cl)cc1C1c2ccccc2CCN1C(=O)C1CC1c1ccccc1C(F)(F)F (single isomer, unassigned) [Example 155, (±)-(4-Chloro-2-{2-[(trans)-2-(2-trifluoromethyl-phenyl)-cyclopropanecarbonyl]-1,2,3,4-tetrahydro-iso-quinolin-1-yl}-phenoxy)-acetic acid (diatereoisomer 1)] | 166 | –
O=C(O)COc1ccc(Cl)cc1C1c2ccccc2CCN1C(=O)C1CC1c1ccccc1C(F)(F)F (single isomer, unassigned) [Example 156, (±)-(4-Chloro-2-{2-[(trans)-2-(2-trifluoromethyl-phenyl)-cyclopropanecarbonyl]-1,2,3,4-tetrahydro-iso-quinolin-1-yl}-phenoxy)-acetic acid (diatereoisomer 2)] | 14.2 | –
CC(C)[C@@H]1C[C@H]1C(=O)N1CCc2ccccc2[C@H]1c1cc(Cl)ccc1OCC(=O)O (single isomer, unassigned) [Example 464] | – | 789
CC(C)[C@@H]1C[C@H]1C(=O)N1CCc2ccccc2[C@H]1c1cc(Cl)ccc1OCC(=O)O (single isomer, unassigned) [Example 465] | – | 53.5
O=C(O)COc1ccc(Cl)cc1C1c2ccccc2CN1C(=O)CCn1ncc2cc(F)ccc21 (single isomer, unassigned) [Example 527, (4-Chloro-2-{2-[3-(5-fluoro-indazol-1-yl)-propionyl]-2,3-dihydro-1H-isoindol-1-yl}-phenoxy)-acetic acid] | – | 8.12
Cc1nn(CCC(=O)N2Cc3ccccc3C2c2cc(Cl)ccc2OCC(=O)O)c2cccc(F)c12 (single isomer, unassigned) [Example 528, (4-Chloro-2-{2-[3-(4-fluoro-3-methyl-indazol-1-yl)-propionyl]-2,3-dihydro-1H-isoindol-1-yl}-phenoxy)-acetic acid] | – | 33.2
Cc1nn(CCC(=O)N2Cc3ccccc3C2c2cc(Cl)ccc2OCC(=O)O)c2cccc(Cl)c12 (single isomer, unassigned) [Example 529] | – | 78
Cc1nn(CCC(=O)N2Cc3ccccc3C2c2cc(Cl)ccc2OCC(=O)O)c2c(F)cccc12 (single isomer, unassigned) [Example 530] | – | 101
Cc1nn(CCC(=O)N2Cc3ccccc3C2c2cc(Cl)ccc2OCC(=O)O)c2cc(F)ccc12 (single isomer, unassigned) [Example 531, (4-Chloro-2-{2-[3-(6-fluoro-3-methyl-indazol-1-yl)-propionyl]-2,3-dihydro-1H-isoindol-1-yl}-phenoxy)-acetic acid] | – | 30.9
Cc1nn(CCC(=O)N2Cc3ccccc3C2c2cc(Cl)ccc2OCC(=O)O)c2cc(Cl)ccc12 (single isomer, unassigned) [Example 532, (4-Chloro-2-{2-[3-(6-chloro-3-methyl-indazol-1-yl)-propionyl]-2,3-dihydro-1H-isoindol-1-yl}-phenoxy)-acetic acid] | – | 40.7

SMILES | IC50 [1] [nM] | IC50 [2] [nM]
Cc1nn(CCC(=O)N2Cc3ccccc3C2c2cc(Cl)ccc2OCC(=O)O)c2ccccc12 (single isomer, unassigned) [Example 533, (4-Chloro-2-{2-[3-(3-methyl-indazol-1-yl)-propionyl]-2,3-dihydro-1H-isoindol-1-yl}-phenoxy)-acetic acid] | – | 6.09
O=C(O)COc1ccc(Cl)cc1C1c2ccccc2CN1C(=O)CCn1ncc2ccc(F)cc21 (single isomer, unassigned) [Example 534, (4-Chloro-2-{2-[3-(6-fluoro-indazol-1-yl)-propionyl]-2,3-dihydro-1H-isoindol-1-yl}-phenoxy)-acetic acid] | – | 12.9
O=C(O)COc1ccc(Cl)cc1C1c2ccccc2CN1C(=O)CCn1ncc2c(F)cccc21 (single isomer, unassigned) [Example 535, (4-Chloro-2-{2-[3-(4-fluoro-indazol-1-yl)-propionyl]-2,3-dihydro-1H-isoindol-1-yl}-phenoxy)-acetic acid] | – | 15.1
O=C(O)COc1ccc(Cl)cc1C1c2ccccc2CN1C(=O)CCn1ncc2cccc(Cl)c21 (single isomer, unassigned) [Example 536] | – | 110
O=C(O)COc1ccc(Cl)cc1C1c2ccccc2CN1C(=O)CCn1ncc2cccc(F)c21 (single isomer, unassigned) [Example 537, (4-Chloro-2-{2-[3-(7-fluoro-indazol-1-yl)-propionyl]-2,3-dihydro-1H-isoindol-1-yl}-phenoxy)-acetic acid] | – | 25.8
Cc1nn(CCC(=O)N2Cc3ccccc3C2c2cc(Cl)ccc2OCC(=O)O)c2cccc(F)c12 (single isomer, unassigned) [Example 538, (4-Chloro-2-{2-[3-(4-fluoro-3-methyl-indazol-1-yl)-propionyl]-2,3-dihydro-1H-isoindol-1-yl}-phenoxy)-acetic acid] | – | 704
Cc1nn(CCC(=O)N2Cc3ccccc3C2c2cc(Cl)ccc2OCC(=O)O)c2cccc(Cl)c12 (single isomer, unassigned) [Example 539] | – | 235
Cc1nn(CCC(=O)N2Cc3ccccc3C2c2cc(Cl)ccc2OCC(=O)O)c2c(F)cccc12 (single isomer, unassigned) [Example 540] | – | 633
Cc1nn(CCC(=O)N2Cc3ccccc3C2c2cc(Cl)ccc2OCC(=O)O)c2cc(F)ccc12 (single isomer, unassigned) [Example 541, (4-Chloro-2-{2-[3-(6-fluoro-3-methyl-indazol-1-yl)-propionyl]-2,3-dihydro-1H-isoindol-1-yl}-phenoxy)-acetic acid] | – | 865
Cc1nn(CCC(=O)N2Cc3ccccc3C2c2cc(Cl)ccc2OCC(=O)O)c2cc(Cl)ccc12 (single isomer, unassigned) [Example 542, (4-Chloro-2-{2-[3-(6-chloro-3-methyl-indazol-1-yl)-propionyl]-2,3-dihydro-1H-isoindol-1-yl}-phenoxy)-acetic acid] | – | 881
O=C(O)COc1ccc(Cl)cc1C1c2ccccc2CN1C(=O)CCn1ncc2cc(F)ccc21 (single isomer, unassigned) [Example 543, (4-Chloro-2-{2-[3-(5-fluoro-indazol-1-yl)-propionyl]-2,3-dihydro-1H-isoindol-1-yl}-phenoxy)-acetic acid] | – | 353
Cc1nn(CCC(=O)N2Cc3ccccc3C2c2cc(Cl)ccc2OCC(=O)O)c2ccccc12 (single isomer, unassigned) [Example 545, (4-Chloro-2-{2-[3-(3-methyl-indazol-1-yl)-propionyl]-2,3-dihydro-1H-isoindol-1-yl}-phenoxy)-acetic acid] | – | 982
O=C(O)COc1ccc(Cl)cc1C1c2ccccc2CN1C(=O)CCn1ncc2ccc(F)cc21 (single isomer, unassigned) [Example 546, (4-Chloro-2-{2-[3-(6-fluoro-indazol-1-yl)-propionyl]-2,3-dihydro-1H-isoindol-1-yl}-phenoxy)-acetic acid] | – | 210
O=C(O)COc1ccc(Cl)cc1C1c2ccccc2CN1C(=O)CCn1ncc2c(F)cccc21 (single isomer, unassigned) [Example 547, (4-Chloro-2-{2-[3-(4-fluoro-indazol-1-yl)-propionyl]-2,3-dihydro-1H-isoindol-1-yl}-phenoxy)-acetic acid] | – | 272
O=C(O)COc1ccc(Cl)cc1C1c2ccccc2CN1C(=O)CCn1ncc2cccc(Cl)c21 (single isomer, unassigned) [Example 548] | – | 715
O=C(O)COc1ccc(Cl)cc1C1c2ccccc2CN1C(=O)CCn1ncc2cccc(F)c21 (single isomer, unassigned) [Example 551, (4-Chloro-2-{2-[3-(7-fluoro-indazol-1-yl)-propionyl]-2,3-dihydro-1H-isoindol-1-yl}-phenoxy)-acetic acid] | – | 292
